According to patent publication US20020048585A1, “Methods of modulating wound healing and angiogenesis” (priority 2000, published 2002):

Test system: primary skin fibroblasts
Experiment: In vitro wound closure (migration) test in confluent fibroblast cultures
Type: cell-based, mouse
Conditions: medium (DMEM with 2% FBS) supplemented with 25 ng/ml; syndecan-4+/+, +/- and -/- fibroblasts
Description: Primary skin fibroblasts were isolated from newborn syndecan-4+/+, syndecan-4+/−, and syndecan-4−/− mice from the same litter. Mice were sacrificed, and their skins were removed, flattened, and floated on a 0.25% trypsin solution (Life Technologies Inc., Gaithersburg, Md., USA) at 4° C. overnight. The dermis was separated from the epidermis and dissociated by stirring at room temperature for 30 minutes in HBSS containing collagenase (500 μg/ml) (Life Technologies Inc.). The cell suspension of each skin was passed through a cell strainer (Becton Dickinson and Co., Franklin Lakes, N.J., USA) and transferred to a 10-cm cell culture dish and cultured as described previously (Saoncella et al.1999. Proc. Natl. Acad. Sci. USA. 96:2805-2810). Dermal fibroblasts were maintained at subconfluent densities and used between passages three and six.
Primary fibroblast cultures were established for 2 days in DMEM with 10% FBS followed by an overnight culture in DMEM with 2% FBS. In vitro wound closure tests were performed by creating clear lines in confluent cultures with a sterile yellow plastic pipette tip. After two washes with medium, the monolayers were covered with fresh medium and the migration of the cells into the cleared spaces was monitored over time. The control medium used during wound closure was DMEM with 2% FBS. […]

## EGF: growth factor (Becton Dickinson) added to culture medium (NSDSECPLSHDGYCLHDGVCMYIEALDKYACNCVVGYIGERCQYRDLKWWELR; Epidermal growth factor; UniProt P01133 971-1023, looked up)
  rate of wound closure: did not alter the rate of wound closure

## FGF-2: growth factor, ligand of the FGF-2 receptor (R&D Systems), added to culture medium
  rate of wound closure: did not alter the rate of wound closure
